Assay results: ChEMBL document CHEMBL1144133, “Novel highly oxygenated bisabolane sesquiterpenes from Cremanthodium discoideum” (1999)

How the values were obtained:
Type in all cases: functional
Bacillus = assay: Antibacterial activity against Bacillus acidilatici MCCB 44102 at 100 ug/ml after 24 hrs by paper-disk method
Pseudomonas aeruginosa = assay: Antibacterial activity against Bacillus aeruginosus MCCB 10104 at 100 ug/ml after 24 hrs by paper-disk method
Bacillus subtilis = assay: Antibacterial activity against Bacillus subtilis MCCB 26501 at 100 ug/ml after 24 hrs by paper-disk method

**Q.** What does the source list for `C=C([C@@H](C[C@H](O)C(C)(C)OC)OC(=O)/C(C)=C\C)[C@@H]1C[C@@H](Cl)[C@](C)(O)[C@H](OC(C)=O)[C@@H]1OC(=O)/C(C)=C\C`?
**A.** Activity (Bacillus): 10 mm; Activity (Pseudomonas aeruginosa): <9 mm; Activity (Bacillus subtilis): 13 mm

**Q.** How did the Activity (Bacillus) turn out when `O=C(N[C@H](CO)[C@H](O)c1ccc([N+](=O)[O-])cc1)C(Cl)Cl` [CHLORAMPHENICOL] was run?
**A.** 13 mm

**Q.** And the Activity (Pseudomonas aeruginosa)?
**A.** 13 mm

**Q.** And the Activity (Bacillus subtilis)?
**A.** 13 mm
